“Also recorded” adds a separate entry of the source. Read-outs that look alike come from different tables or passages of the source. Marks after values point to notes of the source that are not given here.
What was measured:
[1] = molecular target: T1, human M1 muscarinic receptors (Homo sapiens, UniProt P11229); test: [3H]-arachidonic acid release in CHO cells expressing M1 receptors, with and without ACh (single modulator concentration, four-parameter curves); format: cell-based; set-up: expressed in transfected cells; host or cells: CHO cells stably transfected with hM1, obtained from Mark Brann's laboratory (NIH); details: for 0.1 µM ACh: response with modulator present divided by response to ACh alone / 100 µM ACh: response with modulator present divided by response to ACh alone / No ACh: agonist effect of the allosteric ligand by itself, fraction of the maximal response that could be elicited by ACh: modulator 10 µM, CHO-hM1, mean ± s.e.m.; for No ACh: agonist effect of the allosteric ligand by itself, fraction of the maximal response that could be elicited by ACh: at least 4 determinations
T1 sequence (P11229 1-460): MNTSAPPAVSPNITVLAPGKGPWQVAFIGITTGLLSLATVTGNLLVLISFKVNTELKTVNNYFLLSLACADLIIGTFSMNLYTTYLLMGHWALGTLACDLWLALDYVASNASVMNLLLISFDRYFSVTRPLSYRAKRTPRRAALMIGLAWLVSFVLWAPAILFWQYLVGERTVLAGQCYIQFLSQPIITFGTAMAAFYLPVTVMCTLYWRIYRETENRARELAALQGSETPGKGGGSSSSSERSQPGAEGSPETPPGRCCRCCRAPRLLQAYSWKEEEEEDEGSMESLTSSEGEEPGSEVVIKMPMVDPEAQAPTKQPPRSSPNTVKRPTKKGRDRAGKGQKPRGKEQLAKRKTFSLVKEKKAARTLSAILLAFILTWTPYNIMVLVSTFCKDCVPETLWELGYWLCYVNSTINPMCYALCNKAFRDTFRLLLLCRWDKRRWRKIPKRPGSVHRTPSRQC
Experimental: CHO cells expressing human M1 muscarinic receptors were cultured at 37 °C in a 5% CO2 atmosphere in F12 medium supplemented with 5% fetal bovine serum, 100 units/ml penicillin, and 100 µg/ml streptomycin. These cells were obtained from Mark Brann’s laboratory when they were at NIH and have been in use by us and others for many years.
Measurement of [^3H]AA release was performed as described in Stahl and Ellis[24]. Stably transfected CHO-hM1 cells were seeded on 24-well plates (Greiner Bio-One GmbH, Frickenhausen, Germany) at a density of 5.0 × 10^4 cells/well in 0.5 ml of F-12 medium. Cells were incubated until they attached (approximately 3 h), followed by the addition of [^3H]AA to a final concentration of 0.05 μCi of [^3H]AA per well. The cells were then grown for 16 to 20 h before the assay was performed. [^3H]AA release was measured in Eagle’s basal medium with 20 mM HEPES and 2 mg/ml fatty acid-free bovine serum albumin (EM-BSA). Cells were rinsed twice with EM-BSA, followed by the addition of EM-BSA media containing experimental agents and incubated for 1 h at 37 °C. The assay was terminated by aspiration of the media, and the amount of [^3H]AA released was determined by liquid scintillation counting (Beckman-Coulter LS6500).
Where indicated (Fig. 2), cells were pretreated with POB to reduce the number of available receptors per cell. Stock POB was made up at 10 mM in ethanol and stored at −20C. Each well was pretreated with 0.5 ml of the appropriate concentration in PBS with 1 mM CaCl2 and 1 mM MgCl2 (PBS+ +) for 30 min at 37 °C, followed by 5 washes with PBS+ + . After pretreatment, the normal protocol follows as above.
Tabulated [^3H]AA release data are represented as a fraction of maximal release elicited by ACh or as the fraction of release elicited by the relevant concentration of ACh alone, as indicated. Dose-response curves were normalized to the maximal response of ACh without allosteric ligand. Where indicated, response curves were analyzed using the empirical four-parameter equation: Y=Top+Bottom-Top/1+X/C50^n where X is the concentration of the ligand used, Y is the amount of response, C50 is the concentration of the ligand that produces 50% of the maximal effect, Top and Bottom are the top and bottom plateaus of the curve, and n is related to the Hill slope for the curve. Where indicated, families of response curves were analyzed according to an allosteric operational model[50],[51]: Y=EM[τAA(KB+αβB)+τBBKA]/[τAA(KB+αβB)+τBBKA+AKB+KAKB+KAB+αAB] where EM is the maximal response; A is the concentration of ACh; B is the concentration of the allosteric ligand; τA and τB represent the operational efficacies of A and B, respectively; KA and KB are the equilibrium dissociation constants of A and B; and α and β represent the cooperativities between A and B in terms of binding and activation, respectively. Curve-fitting was carried out with GraphPad Prism, version 5.0 or 6.0 (San Diego CA).

[2] = test system: wild-type (AB) zebrafish (Danio rerio); test: Maximum tolerated concentration (MTC) determination in larval zebrafish; format: in vivo; details: for MTC (maximum tolerated concentration): after 24 h exposure, 5 dpf larvae
Experimental: (§1) Larval zebrafish were produced in the University of Toledo zebrafish core facility and housed in an incubator maintained at 28 °C on a 14:10 h cycle. Fish were acclimated to the testing room conditions the evening prior to testing. All testing took place during the 14 h light cycle after the lights had been on for at least 2 h.
Determination of maximum tolerated concentration (adapted from Berghmans)[52] was completed by placing 5 days post fertilization (dpf) wild-type zebrafish larvae in a 24 well plate at 6 fish per well, and one compound concentration per well. […] Death was determined by the absence of heartbeat. Additional endpoints were used to assess toxicity at non-lethal concentrations such as startle capacity (poke stimulus), abnormalities in swimming behavior (loss of dorsoventral balance), and gross morphological deformities (bent body). […] The MTC determination was used to select three doses of each compound (low, medium, high dose) to be used in behavioral assays.

[3] = test system: wild-type (AB) zebrafish (Danio rerio); format: in vivo; details: compound at 10 µM relative to controls; mean ± s.e.m., N = 12
[4] = test system: wild-type (AB) zebrafish (Danio rerio); test: animal or person; format: in vivo; details: for MEC: locomotor behaviors
Experimental: as §1
The movement of larval zebrafish was monitored with the Noldus behavior recording system (Noldus Information Technology, Leesburg VA) and quantified using EthoVision® XT 15 software (Noldus Information Technology, Leesburg VA). Five-dpf zebrafish larvae were exposed to a range of nonlethal concentrations of compounds in a 24-well plate with appropriate controls. The plate was immediately placed in the incubator for a 30-min exposure period. After 30 min, the plate was transferred to the Noldus system and swimming behavior was recorded in 100% light for 30 min to measure spontaneous swimming behavior. The light was switched off for 10 min (dark period) and then switched on for 10 min (light period), which was then repeated for two additional cycles. In total, the larvae were exposed to three cycles of alternating 10 min dark and light periods (100% darkness-to-100% light). Each drug challenge was conducted on three separate plates with n = 6 larvae/dose/plate.
Absolute turn angle (TA) and angular velocity provided measures of the extent of turning behavior, while the intra-individual variance of turn angle quantified how consistently (low variance) or inconsistently (high variance) fish turned. A lowered intra-individual variance of turning reflected repeatedly performing the same turning behavior, a stereotypy.
All data for exposure and the behavioral end points were analyzed by one-way ANOVA (factor: drug concentration) followed by a Dunnett’s multiple comparisons test for post hoc significance between drug concentration and control group. Statistically significant differences are noted as follows; *p < 0.05; **p < 0.01; ***p < 0.001.

[5] = compound at 10 µM relative to controls, mean ± s.e.m., N = 12
[6] = modulators at 10 µM (amiodarone 30 µM)

O=C1C(=O)N(Cc2ccc(Br)cc2)c2ccccc21 [VU0119498, reference compound]
0.1 µM ACh: response with modulator present divided by response to ACh alone [1]: 1.28 ± 0.12 | 100 µM ACh: response with modulator present divided by response to ACh alone [1]: 1.03 ± 0.05 | No ACh: agonist effect of the allosteric ligand by itself, fraction of the maximal response that could be elicited by ACh [1]: 0.06 ± 0.01

CCCCc1oc2ccccc2c1C(=O)c1cc(I)c(OCCN(CC)CC)c(I)c1 [Amiodarone, reference compound]
Concentration that produced death ([2]; 24 h exposure): 100 µM | MTC (maximum tolerated concentration) [2]: 10 µM | Angular velocity [3]: 83.2 ± 12.0% | Distance moved [4, 5]: 85.7 ± 10.2% | Variance turn angle [4, 5]: 102.2 ± 10.4% | MEC [4]: > 10 µM

CCCCc1oc2ccccc2c1C(=O)c1cc(I)c(O)c(I)c1 [Compound 3, reference compound]
MTC (maximum tolerated concentration) [2]: 3 µM | 0.1 µM ACh: response with modulator present divided by response to ACh alone [1]: 0.63 ± 0.10 | 100 µM ACh: response with modulator present divided by response to ACh alone [1]: 0.90 ± 0.07 | No ACh: agonist effect of the allosteric ligand by itself, fraction of the maximal response that could be elicited by ACh [1]: 0.04 ± 0.01 | Effect on M1 receptor activity and ACh response, in words [1, 6]: suppressed the maximal ACh response | MEC [4]: > 3 µM

COc1cccc(CN2C(=O)C(=O)c3ccccc32)c1 [Compound 8j, 1-(3-methoxybenzyl)indoline-2,3-dione]
0.1 µM ACh: response with modulator present divided by response to ACh alone [1]: 1.09 ± 0.31 | 100 µM ACh: response with modulator present divided by response to ACh alone [1]: 0.96 ± 0.01 | No ACh: agonist effect of the allosteric ligand by itself, fraction of the maximal response that could be elicited by ACh [1]: 0.02 ± 0.02

CCCCc1oc2ccccc2c1C(=O)c1cc(I)c(OCC[N+](CC)(CC)CC)c(I)c1 [Compound 2, N-ethyl amiodarone, reference compound]
MTC (maximum tolerated concentration) [2]: 1 µM | 0.1 µM ACh: response with modulator present divided by response to ACh alone [1]: 0.13 ± 0.04 | 100 µM ACh: response with modulator present divided by response to ACh alone [1]: 0.50 ± 0.03 | No ACh: agonist effect of the allosteric ligand by itself, fraction of the maximal response that could be elicited by ACh [1]: 0.04 ± 0.02 | Effect on M1 receptor activity and ACh response, in words [1, 6]: NAM of mAChR potency and efficacy | MEC [4]: > 1 µM

COc1ccc(Cn2cc(C(=O)O)c(=O)c3ccccc32)cc1 [BQCA, reference compound]
Effect on M1 receptor activity and ACh response, in words [1]: enhanced potency without appreciable effect on maximal response | No ACh: agonist effect of the allosteric ligand by itself, fraction of the maximal response that could be elicited by ACh [1]: 0.02 ± 0.00 | Effect on locomotor activity and turning behaviors, in words ([4]; 30 min spontaneous swimming period): decreased overall locomotor activity; also recorded: increased angular velocity | response vs control in vivo at 10 µM ([4]; Danio rerio, read-out: Distance moved): 72 ± 10% | MEC ([4]; abbreviation not defined in the paper): 3 µM | Angular velocity [4, 5]: 141.8 ± 14.9* % | Variance turn angle [4, 5]: 119.6 ± 7.0* %

VU0238408 [reference compound]
MTC (maximum tolerated concentration) [2]: 30 µM | Angular velocity [3]: 180.1 ± 20.3 % | Therap. index [4]: 30 | Distance moved [4, 5]: 34.6 ± 4.0*** % | Variance turn angle [4, 5]: 146.6 ± 12.4*** % | MEC [4]: 1 µM

CC(COc1ccccc1)N(CCCl)Cc1ccccc1 (stereo not drawn) [POB, phenoxybenzamine, reference compound]
Reduction of receptor number ([1]; pretreatment of cells with 0.3 µM POB): 90%

CCCCc1oc2ccccc2c1C(=O)c1ccc(O)cc1 [Compound 4, reference compound]
MTC (maximum tolerated concentration) [2]: 0.3 µM | 0.1 µM ACh: response with modulator present divided by response to ACh alone [1]: 0.62 ± 0.07 | 100 µM ACh: response with modulator present divided by response to ACh alone [1]: 0.81 ± 0.06 | No ACh: agonist effect of the allosteric ligand by itself, fraction of the maximal response that could be elicited by ACh [1]: 0.04 ± 0.01 | Effect on M1 receptor activity and ACh response, in words [1, 6]: suppressed the maximal ACh response | MEC [4]: > 0.3 µM

CCCCc1oc2ccccc2c1C(=O)c1cc(I)c(OCCNCC)c(I)c1.Cl [Compound 1, (2-butylbenzofuran-3-yl)(4-(2-(ethylamino)ethoxy)-3,5-diiodophenyl)methanone hydrochloride]
MTC (maximum tolerated concentration) [2]: 3 µM | 0.1 µM ACh: response with modulator present divided by response to ACh alone [1]: 1.01 ± 0.11 | 100 µM ACh: response with modulator present divided by response to ACh alone [1]: 0.83 ± 0.09 | No ACh: agonist effect of the allosteric ligand by itself, fraction of the maximal response that could be elicited by ACh [1]: 0.18 ± 0.03 | Effect on M1 receptor activity and ACh response, in words [1, 6]: suppressed the maximal ACh response | Therap. index [4]: 1 | MEC [4]: 3 µM
